In US7491794B2, “Macrocyclic compounds as inhibitors of viral replication” (Intermune, Inc., priority 2003, dated 2009):

These molecules were tested against T1, NS3-NS4 protease (Hepatitis C virus genotype 1a, UniProt P27958) (assay: NS3-NS4 protease assay / NS3 inhibition assay, Section D).
T1 construct: Recombinant E. coli or Baculovirus full-length NS3 was diluted to 3.33 μM with assay buffer; made in house; host or cells: E. coli or baculovirus (BV) system
Format: biochemical
Procedure: NS3-NS4 Protease Assay NS3 complex formation with NS4A-2.
Recombinant E. coli or Baculovirus full-length NS3 was diluted to 3.33 μM with assay buffer and transferred material to an eppendorf tube and place in water bath in 4° C. refrigerator. The appropriate amount of NS4A-2 to 8.3 mM in assay buffer was added to equal the volume of NS3 in step 2.1.1 (conversion factor −3.8 mg/272 μL assay buffer). The material was transferred to an eppendorf tube and place in water bath in 4° C. refrigerator.
After equilibration to 4° C., equal volumes of NS3 and NS4A-2 solutions were combined in an eppendorf tube, mix gently with a manual pipettor, and incubate mixture for 15 minutes in the 4° C. water bath. Final concentrations in the mixture are 1.67 μM NS3, 4.15 mM NS4A-2 (2485-fold molar excess NS4A-2).
After 15 minutes at 4° C., the NS3/NS4A-2 eppendorf tube was removed and placed in a room temperature water bath for 10 minutes. NS3/NS4A-2 was alliquoted at appropriate volumes and store at −80° C. (E. coli NS3 run at 2 nM in assay, aliquot at 25 μL. BV NS3 run at 3 nM in assay, aliquot at 30 μL).
Sample compounds were dissolved to 10 mM in DMSO then diluted to 2.5 mM (1:4) in DMSO.
The E. coli. NS3/NS4A-2 was diluted to 4 nM NS3 (1:417.5 of 1.67 μM stock−18 μL 1.67 μM stock+7497 μL assay buffer).
The BV NS3/NS4A-2 was diluted to 6 nM NS3 (1:278.3 of 1.67 μM stock−24 μL 1.67 μM stock+6655 μL assay buffer).
Using the manual multichannel pipettor, careful not to introduce bubbles into the plate, add 50 μL assay buffer to wells A01-H01 of a black Costar 96-well polypropylene storage plate.
Using the manual multichannel pipettor, careful not to introduce bubbles into the plate, add 50 μL of diluted NS3/NS4A-2 from step 2.2.6 to wells A02-H12 of plate in step 2.2.7.
Using the manual multichannel pipettor, careful not to introduce bubbles into the plate, transfer 25 μL of the wells in drug dilution plate in step 2.2.5 to corresponding wells in assay plate in step 2.2.8. Change tips on multichannel pipettor for each row of compounds transferred.
Using the manual multichannel pipettor, careful not to introduce bubbles into the plate, mix the wells from the assay plate in step 2.2.9 by aspirating and dispensing 35 μL of the 75 μL in each well five times. Change tips on multichannel pipettor for each row of wells mixed.
Cover plate with a polystyrene plate lid and pre-incubate the plate from step 2.2.10 containing NS3 protease and sample compounds 10 minutes at room temperature.
While plate from step 2.2.11 is pre-incubating, dilute RETS1 substrate in a 15 mL polypropylene centrifuge tube.
Dilute RETS1 substrate to 8 μM (1:80.75 of 646 μM stock−65 μL 646 μM stock+5184 μL assay buffer).
After the plate in step is done pre-incubating, and using the manual multichannel, add 25 μL of substrate to all wells on the plate. Quickly mix the plate as in step 2.2.10, mixing 65 μL of the 100 μL in the wells.
Read the plate in kinetic mode on the Molecular Devices SpectraMax Gemini XS plate reader. Reader settings: Read time: 30 minutes, Interval: 36 seconds, Reads: 51, Excitation k: 335 nm, Emission k: 495 nm, cutoff: 475 nm, Automix: off, Calibrate: once, PMT: high, Reads/well: 6, Vmax pts: 21 or 28/51 depending on length of linearity of reaction.
IC50s are determined using a four parameter curve fit equation, and converted to Ki's using the following Km's:
where Ki=IC50/(1+[S]/Km))

T1 sequence (P27958 1027-1657): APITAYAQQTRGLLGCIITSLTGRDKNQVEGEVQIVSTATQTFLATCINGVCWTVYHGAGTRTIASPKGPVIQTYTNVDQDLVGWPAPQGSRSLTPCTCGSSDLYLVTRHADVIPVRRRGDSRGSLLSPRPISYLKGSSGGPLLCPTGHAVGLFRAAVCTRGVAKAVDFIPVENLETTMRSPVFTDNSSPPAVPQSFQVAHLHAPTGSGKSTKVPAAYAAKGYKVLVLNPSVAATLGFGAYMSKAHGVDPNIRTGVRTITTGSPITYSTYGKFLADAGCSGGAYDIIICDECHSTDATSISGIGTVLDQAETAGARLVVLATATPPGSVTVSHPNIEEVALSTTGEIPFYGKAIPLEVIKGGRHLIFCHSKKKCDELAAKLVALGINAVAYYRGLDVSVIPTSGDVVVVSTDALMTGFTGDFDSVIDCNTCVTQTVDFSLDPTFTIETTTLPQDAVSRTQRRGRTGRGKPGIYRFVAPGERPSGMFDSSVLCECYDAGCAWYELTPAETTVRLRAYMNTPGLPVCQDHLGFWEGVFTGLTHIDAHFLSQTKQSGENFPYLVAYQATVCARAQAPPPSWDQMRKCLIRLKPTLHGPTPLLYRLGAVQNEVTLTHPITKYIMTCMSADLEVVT

SMILES	IC50 [nM]
CC(C)(C)OC(=O)N[C@H]1CCCCC/C=C\[C@@H]2C[C@@]2(C(=O)NS(=O)(=O)C2CC2)NC(=O)[C@@H]2C[C@@H](NC(=O)c3sc4ccccc4c3Cl)CN2C1=O [Example 1]	< 100
CC(C)(C)OC(=O)N[C@H]1CCCCC/C=C\[C@@H]2C[C@@]2(C(=O)NS(=O)(=O)C2CC2)NC(=O)[C@@H]2C[C@@H](NC(=O)c3ccccc3)CN2C1=O [Example 2]	< 100
CCc1ccc(C(=O)N[C@@H]2C[C@H]3C(=O)N[C@]4(C(=O)NS(=O)(=O)C5CC5)C[C@H]4/C=C\CCCCC[C@H](NC(=O)OC(C)(C)C)C(=O)N3C2)cc1 [Example 3]	< 100
CC(C)(C)OC(=O)N[C@H]1CCCCC/C=C\[C@@H]2C[C@@]2(C(=O)NS(=O)(=O)C2CC2)NC(=O)[C@@H]2C[C@@H](NC(=O)c3ccc(Cl)cc3)CN2C1=O [Example 4]	< 100
CC(C)(C)OC(=O)N[C@H]1CCCCC/C=C\[C@@H]2C[C@@]2(C(=O)NS(=O)(=O)C2CC2)NC(=O)[C@@H]2C[C@@H](NC(=O)c3c(Cl)cc(Cl)cc3Cl)CN2C1=O [Example 5]	< 100
COc1ccc(C(=O)N[C@@H]2C[C@H]3C(=O)N[C@]4(C(=O)NS(=O)(=O)C5CC5)C[C@H]4/C=C\CCCCC[C@H](NC(=O)OC(C)(C)C)C(=O)N3C2)cc1 [Example 6]	< 100
COc1cccc(C(=O)N[C@@H]2C[C@H]3C(=O)N[C@]4(C(=O)NS(=O)(=O)C5CC5)C[C@H]4/C=C\CCCCC[C@H](NC(=O)OC(C)(C)C)C(=O)N3C2)c1 [Example 7]	< 100
COc1ccc(C(=O)N[C@@H]2C[C@H]3C(=O)N[C@]4(C(=O)NS(=O)(=O)C5CC5)C[C@H]4/C=C\CCCCC[C@H](NC(=O)OC(C)(C)C)C(=O)N3C2)cc1C(F)(F)F [Example 8]	< 100
CC(C)(C)OC(=O)N[C@H]1CCCCC/C=C\[C@@H]2C[C@@]2(C(=O)NS(=O)(=O)C2CC2)NC(=O)[C@@H]2C[C@@H](NC(=O)c3ccc(C#N)cc3)CN2C1=O [Example 9]	< 100
CC(C)(C)OC(=O)N[C@H]1CCCCC/C=C\[C@@H]2C[C@@]2(C(=O)NS(=O)(=O)C2CC2)NC(=O)[C@@H]2C[C@@H](NC(=O)c3cccc(C#N)c3)CN2C1=O [Example 10]	< 100
CN(C)c1ccc(C(=O)N[C@@H]2C[C@H]3C(=O)N[C@]4(C(=O)NS(=O)(=O)C5CC5)C[C@H]4/C=C\CCCCC[C@H](NC(=O)OC(C)(C)C)C(=O)N3C2)cc1 [Example 11]	< 100
CC(C)Nc1nc(C(=O)N[C@@H]2C[C@H]3C(=O)N[C@]4(C(=O)NS(=O)(=O)C5CC5)C[C@H]4/C=C\CCCCC[C@H](NC(=O)OC(C)(C)C)C(=O)N3C2)cs1 [Example 12]	< 100
CN(C)c1ccc(C(=O)N[C@@H]2C[C@H]3C(=O)N[C@]4(C(=O)NS(=O)(=O)C5CC5)C[C@H]4/C=C\CCCCC[C@H](NC(=O)OC(C)(C)C)C(=O)N3C2)cn1 [Example 13]	< 100
CC(C)(C)OC(=O)N[C@H]1CCCCC/C=C\[C@@H]2C[C@@]2(C(=O)NS(=O)(=O)C2CC2)NC(=O)[C@@H]2C[C@@H](NC(=O)c3ccc(N4CCOCC4)nc3)CN2C1=O [Example 14]	< 100
CC(C)(C)OC(=O)N[C@H]1CCCCC/C=C\[C@@H]2C[C@@]2(C(=O)NS(=O)(=O)C2CC2)NC(=O)[C@@H]2C[C@@H](NC(=O)c3ccc(F)c(F)c3)CN2C1=O [Example 15]	< 100
CC(C)(C)OC(=O)N[C@H]1CCCCC/C=C\[C@@H]2C[C@@]2(C(=O)NS(=O)(=O)C2CC2)NC(=O)[C@@H]2C[C@@H](NC(=O)c3ccc(Cl)c(Cl)c3)CN2C1=O [Example 16]	< 100
CC(C)(C)OC(=O)N[C@H]1CCCCC/C=C\[C@@H]2C[C@@]2(C(=O)NS(=O)(=O)C2CC2)NC(=O)[C@@H]2C[C@@H](NC(=O)c3ccc(S(N)(=O)=O)cc3)CN2C1=O [Example 17]	< 100

SMILES	IC50 [nM]
CC(C)(C)OC(=O)N[C@H]1CCCCC/C=C\[C@@H]2C[C@@]2(C(=O)NS(=O)(=O)C2CC2)NC(=O)[C@@H]2C[C@@H](NC(=O)c3ccc(C(N)=O)cc3)CN2C1=O [Example 18]	< 100
CC(C)(C)OC(=O)N[C@H]1CCCCC/C=C\[C@@H]2C[C@@]2(C(=O)NS(=O)(=O)C2CC2)NC(=O)[C@@H]2C[C@@H](NC(=O)c3ccc(-c4ccccc4)cc3)CN2C1=O [Example 19]	< 100
CC(C)(C)OC(=O)N[C@H]1CCCCC/C=C\[C@@H]2C[C@@]2(C(=O)NS(=O)(=O)C2CC2)NC(=O)[C@@H]2C[C@@H](NC(=O)c3ccc(-n4ccnc4)cc3)CN2C1=O [Example 20]	< 100
CC(C)(C)OC(=O)N[C@H]1CCCCC/C=C\[C@@H]2C[C@@]2(C(=O)NS(=O)(=O)C2CC2)NC(=O)[C@@H]2C[C@@H](NC(=O)c3cnn(-c4ccccc4)c3C(F)(F)F)CN2C1=O [Example 21]	< 100
CC(C)(C)OC(=O)N[C@H]1CCCCC/C=C\[C@@H]2C[C@@]2(C(=O)NS(=O)(=O)C2CC2)NC(=O)[C@@H]2C[C@@H](NC(=O)c3ccc(-c4ccc(Cl)cc4)o3)CN2C1=O [Example 22]	< 100
CC(C)(C)OC(=O)N[C@H]1CCCCC/C=C\[C@@H]2C[C@@]2(C(=O)NS(=O)(=O)C2CC2)NC(=O)[C@@H]2C[C@@H](NC(=O)c3csc(-c4ccc(Cl)cc4)c3)CN2C1=O [Example 23]	< 100
CC(C)(C)OC(=O)N[C@H]1CCCCC/C=C\[C@@H]2C[C@@]2(C(=O)NS(=O)(=O)C2CC2)NC(=O)[C@@H]2C[C@@H](NC(=O)c3csc(-c4ccccc4)n3)CN2C1=O [Example 24]	< 100
CC(C)(C)OC(=O)N[C@H]1CCCCC/C=C\[C@@H]2C[C@@]2(C(=O)NS(=O)(=O)C2CC2)NC(=O)[C@@H]2C[C@@H](NC(=O)c3csc(-c4ccccc4Cl)n3)CN2C1=O [Example 25]	< 100
CC(C)(C)OC(=O)N[C@H]1CCCCC/C=C\[C@@H]2C[C@@]2(C(=O)NS(=O)(=O)C2CC2)NC(=O)[C@@H]2C[C@@H](NC(=O)c3csc(-c4ccc(Cl)cc4)n3)CN2C1=O [Example 26]	< 100
CC(C)(C)OC(=O)N[C@H]1CCCCC/C=C\[C@@H]2C[C@@]2(C(=O)NS(=O)(=O)C2CC2)NC(=O)[C@@H]2C[C@@H](NC(=O)c3ccc4ccccc4c3)CN2C1=O [Example 27]	< 100
CC(C)(C)OC(=O)N[C@H]1CCCCC/C=C\[C@@H]2C[C@@]2(C(=O)NS(=O)(=O)C2CC2)NC(=O)[C@@H]2C[C@@H](NC(=O)c3ccc4ncccc4c3)CN2C1=O [Example 28]	< 100
CC(C)(C)OC(=O)N[C@H]1CCCCC/C=C\[C@@H]2C[C@@]2(C(=O)NS(=O)(=O)C2CC2)NC(=O)[C@@H]2C[C@@H](NC(=O)c3cnc4ccccc4c3)CN2C1=O [Example 29]	< 100
CC(C)(C)OC(=O)N[C@H]1CCCCC/C=C\[C@@H]2C[C@@]2(C(=O)NS(=O)(=O)C2CC2)NC(=O)[C@@H]2C[C@@H](NC(=O)c3cnc4ccccc4n3)CN2C1=O [Example 30]	< 100
CC(C)(C)OC(=O)N[C@H]1CCCCC/C=C\[C@@H]2C[C@@]2(C(=O)NS(=O)(=O)C2CC2)NC(=O)[C@@H]2C[C@@H](NC(=O)c3cc4ccccc4[nH]3)CN2C1=O [Example 31]	< 100
CC(C)(C)OC(=O)N[C@H]1CCCCC/C=C\[C@@H]2C[C@@]2(C(=O)NS(=O)(=O)C2CC2)NC(=O)[C@@H]2C[C@@H](NC(=O)c3cc4cc(Cl)ccc4[nH]3)CN2C1=O [Example 32]	< 100
COc1ccc2[nH]c(C(=O)N[C@@H]3C[C@H]4C(=O)N[C@]5(C(=O)NS(=O)(=O)C6CC6)C[C@H]5/C=C\CCCCC[C@H](NC(=O)OC(C)(C)C)C(=O)N4C3)cc2c1 [Example 33]	< 100
CC(C)(C)OC(=O)N[C@H]1CCCCC/C=C\[C@@H]2C[C@@]2(C(=O)NS(=O)(=O)C2CC2)NC(=O)[C@@H]2C[C@@H](NC(=O)c3cc4cc(F)ccc4[nH]3)CN2C1=O [Example 34]	< 100
